Data as given in patent US6784192B2, “Piperidine compound and pharmaceutical composition thereof” (Eisai Co., Ltd., priority 2000, dated 2004).

How the values were obtained:
[1] = test system: atrial muscle of anesthetized thoracotomy dog; assay: Effective refractory period (ERP) in anesthetized thoracotomy dog; assay type: in vivo; settings: for Measurement Value of ERP: mean
Excerpt: (1) An anesthetized thoracotomy dog was used for the present experiment. After opening brisket at a median line and cutting epicardium, bipolar electrodes for determination of a potential wave form were respectively stitched at the free walls of right and left atriums. Further, a wire electrode was inserted in the free wall of a right atrium to be fixed and used for electrical simulation.
(2) A program electrical stimulation equipment was connected with the electrode for electrical stimulation at the right atrium, the electrical stimulation was carried out at a stimulation periodical length of 500 mess, and a threshold for the electrical stimulation was measured. The electrical stimulation intensity for the experiments below was set to carry out stimulation at 3-fold of this threshold. However, when the threshold was 0.7 V or less, the electrical stimulation was carried out at 2.0 V. Effective refractory period (ERP) provided early premature stimulation (S2) after the basic stimulation (S1) of 10 times, and the longest linking period in which atrium potential was not generated by the premature stimulation was referred to as ERP, while shortening the linking period (S1-S2) by 5 mess. Similar experiments were also carried out for the respective basic stimulation length (BCL) of 400, 300, 250 and 200 mess (control experiment: 1 series). After carrying out 2 times or more of the control experiments and confirming that ERP was stable, the tested substance was subsequently administered, and similar measurement was carried out. After the tested substance was administered once intravenously for 5 minutes, its keeping dose was subsequently administered intravenously. After 10 minutes of the administration start of the keeping dose, ERP was measured in the respective stimulation frequency. After completion of the one series of measurements, the concentration of the tested substance was increased and the similar experiments were repeated. The ERP and conduction time in the atrium in the respective stimulation frequency were compared with various indices under control condition. The result is shown by mean.

rabbit atrial muscle = assay: Assessment for rabbit atrial muscle, Vmax; settings: Test Example 4, right atrial muscle, stimulation frequency 4 Hz, 15 minutes
Description: The specimen of the right atrial muscle which was enucleated from rabbit was used for the present experiment. The electrical stimulation was applied for the right atrial muscle which was enucleated, under conditions: a stimulation duration of 1 mess; a stimulation frequency of 4 Hz; and a stimulation intensity of about 1.2-fold of the threshold. The stimulation was provided from 30 minutes to 60 minutes before start of the experiment, and the condition of the specimen was stabilized. The action potential was recorded according to a glass microelectrode method. 3 M KCl was charged in the glass electrode, inserted in the specimen of the right atrium, and the action potential was recorded. Vmax is the parameter of the maximum upstroke slope of the action potential recorded, and a value which was automatically calculated by an action potential analysis soft (CAPA 1.23 manufactured by Physiotec. Co., Ltd.) was used. After the action potential in a normal Tyrode solution was recorded as control, the action potential after flowing the tested substances at respective concentrations for 15 minutes was recorded. The action of the tested substance for Vmax was calculated as an IC50 value.

[2] = test system: spontaneous nerve discharge of cut left saphenous nerve; assay: Suppression of spontaneous nerve discharge (ectopic firing); assay type: in vivo; settings: Test Example 5, rat, intravenous catheter, urethane anesthetized; for ED50: read-out: Ectopic Firing (ID50 mg/kg)
Description: In order to assess the suppression action for spontaneous nerve discharge, the experiment was carried out by a method below, referring to “Burchiel, K J., Exp. Nuerol., 102, 249-253 (1988)”. Namely, for the rat in which spontaneous discharge was observed, the left saphenous nerve was cut off nearby knee articulatio before 1 week or more, and around 3 mm of the nerve was cut off so that the nerve was not adhered again. The left saphenous nerve was exposed under urethane (1 g/kg body weight) anesthetized, and about 1 cm of adjacent portion from the cut portion was peeled from a periphery tissue. Further, a catheter was preliminarily inserted in the vein of a right neck for administration of a compound. The peeled nerve was mounted on a platinum hook electrode, and liquid paraffin was put on it so that the nerve was not dried. The electrode was connected with a fine electrode amplifier, and the value was recorded on a computer through an AD/converter from an oscilloscope. The nerve discharge recorded was assessed by the number of ignition per 10 seconds using an analysis soft (AcqKnowledge).

[3] = dose 0.1 mg/kg intravenously, BCL 200 msec
[4] = dose 0.1 mg/kg intravenously, BCL 300 msec
[5] = dose 0.1 mg/kg intravenously, BCL 400 msec
[6] = dose 0.1 mg/kg intravenously, BCL 500 msec
[7] = dose 0.3 mg/kg intravenously, BCL 200 msec
[8] = dose 0.3 mg/kg intravenously, BCL 300 msec
[9] = dose 0.3 mg/kg intravenously, BCL 400 msec
[10] = dose 0.3 mg/kg intravenously, BCL 500 msec
[11] = dose 1 mg/kg intravenously, BCL 200 msec
[12] = dose 1 mg/kg intravenously, BCL 300 msec
[13] = dose 1 mg/kg intravenously, BCL 400 msec
[14] = dose 1 mg/kg intravenously, BCL 500 msec
[15] = dose 0.1 mg/kg intravenously, BCL 250 msec
[16] = dose 0.3 mg/kg intravenously, BCL 250 msec

O=c1[nH]cccc1CN1CCC(CCc2nccs2)CC1 [Example 109, 1-[(2-Oxo-1,2-dihydro-3-pyridinyl)methyl]-4-[2-(1,3-thiazol-2-yl)ethyl]piperidine]
Measurement Value of ERP [1, 3]: 110 ms
Measurement Value of ERP [1, 4]: 140 ms
Measurement Value of ERP [1, 5]: 165 ms
Measurement Value of ERP [1, 6]: 185 ms
Measurement Value of ERP [1, 7]: 130 ms
Measurement Value of ERP [1, 8]: 155 ms
Measurement Value of ERP [1, 9]: 185 ms
Measurement Value of ERP [1, 10]: 200 ms
Measurement Value of ERP [1, 11]: 150 ms
Measurement Value of ERP [1, 12]: 175 ms
Measurement Value of ERP [1, 13]: 215 ms
Measurement Value of ERP [1, 14]: 235 ms

COc1ncccc1CCC1CCN(Cc2ccc[nH]c2=O)CC1 [Example 118, 1-[(2-Oxo-1,2-dihydro-3-pyridinyl)methyl]-4-[2-(2-methoxy-3-pyridyl)ethyl]piperidine]
Measurement Value of ERP [1, 7]: 130 ms
Measurement Value of ERP [1, 8]: 160 ms
Measurement Value of ERP [1, 9]: 180 ms
Measurement Value of ERP [1, 10]: 190 ms
Measurement Value of ERP [1, 12]: 190 ms
Measurement Value of ERP [1, 13]: 215 ms
Measurement Value of ERP [1, 14]: 220 ms

O=c1[nH]cccc1CN1CCC(CCc2cccc3c2OCO3)CC1 [Example 128, 1-[(2-Oxo-1,2-dihydro-3-pyridinyl)methyl]-4-(2,3-methylenedioxyphenethyl)piperidine]
Measurement Value of ERP [1, 3]: 125 ms
Measurement Value of ERP [1, 4]: 160 ms
Measurement Value of ERP [1, 5]: 175 ms
Measurement Value of ERP [1, 6]: 185 ms
Measurement Value of ERP [1, 7]: 155 ms
Measurement Value of ERP [1, 8]: 180 ms
Measurement Value of ERP [1, 9]: 195 ms
Measurement Value of ERP [1, 10]: 210 ms
Measurement Value of ERP [1, 12]: 215 ms
Measurement Value of ERP [1, 13]: 250 ms
Measurement Value of ERP [1, 14]: 280 ms

COc1ccccc1C(=O)CC1CCN(Cc2ccc[nH]c2=O)CC1 [Example 144, 1-[(2-Oxo-1,2-dihydro-3-pyridinyl)methyl]-4-[2-(2-methoxyphenyl)-2-oxoethyl]piperidine]
Measurement Value of ERP [1, 3]: 140 ms
Measurement Value of ERP [1, 15]: 155 ms
Measurement Value of ERP [1, 4]: 165 ms
Measurement Value of ERP [1, 5]: 190 ms
Measurement Value of ERP [1, 6]: 200 ms
Measurement Value of ERP [1, 7]: 155 ms
Measurement Value of ERP [1, 16]: 165 ms
Measurement Value of ERP [1, 8]: 180 ms
Measurement Value of ERP [1, 9]: 200 ms
Measurement Value of ERP [1, 10]: 215 ms

C#CCN(CC#C)C(=O)C[C@H]1CCCCN1Cc1ccc[nH]c1=O [Example 191, N1,N1-Di(2-propynyl)-2-[(2R)-1-[(2-oxo-1,2-dihydro-3-pyridinyl)methyl]-2-piperidyl]acetamide]
Measurement Value of ERP [1, 7]: 135 ms
Measurement Value of ERP [1, 8]: 155 ms
Measurement Value of ERP [1, 9]: 165 ms
Measurement Value of ERP [1, 10]: 175 ms
Percent change in ERP versus pre-dose control ([1]; dose 0.3 mg/kg, BCL 300 msec): 14.8%
Percent change in ERP versus pre-dose control ([1]; dose 0.3 mg/kg, BCL 400 msec): 6.5%
Percent change in ERP versus pre-dose control ([1]; dose 0.3 mg/kg, BCL 500 msec): 9.4%
Measurement Value of ERP [1, 11]: 150 ms
Measurement Value of ERP [1, 12]: 170 ms
Measurement Value of ERP [1, 13]: 185 ms
Measurement Value of ERP [1, 14]: 195 ms
Percent change in ERP versus pre-dose control ([1]; dose 1 mg/kg, BCL 300 msec): 25.9%
Percent change in ERP versus pre-dose control ([1]; dose 1 mg/kg, BCL 400 msec): 19.4%
Percent change in ERP versus pre-dose control ([1]; dose 1 mg/kg, BCL 500 msec): 21.9%

C#CCN(CC#C)C(=O)C[C@H]1CCCCN1Cc1cccn(CC(F)(F)F)c1=O [Example 194, N1,N1-Di(2-propynyl)-2-[(2R)-1-[[2-oxo-1-(2,2,2-trifluoroethyl)-1,2-dihydro-3-pyridinyl)methyl]hexahydro-2-pyridinyl]acetamide]
Measurement Value of ERP [1, 3]: 110 ms
Measurement Value of ERP [1, 15]: 120 ms
Measurement Value of ERP [1, 4]: 135 ms
Measurement Value of ERP [1, 5]: 155 ms
Measurement Value of ERP [1, 6]: 165 ms
Measurement Value of ERP [1, 7]: 125 ms
Measurement Value of ERP [1, 16]: 126 ms
Measurement Value of ERP [1, 8]: 145 ms
Measurement Value of ERP [1, 9]: 165 ms
Measurement Value of ERP [1, 10]: 175 ms
Measurement Value of ERP [1, 11]: 145 ms
Measurement Value of ERP ([1]; dose 1 mg/kg intravenously, BCL 250 msec): 155 ms
Measurement Value of ERP [1, 12]: 170 ms
Measurement Value of ERP [1, 13]: 195 ms
Measurement Value of ERP [1, 14]: 210 ms

O=c1[nH]cc(Cl)cc1CN1CCC(/C=C/c2ccccc2F)CC1 [Example 334, 1-[(5-Chloro-2-oxo-1,2-dihydro-3-pyridinyl)methyl]-4-[(E)-2-(2-fluorophenyl)-1-ethenyl]piperidine]
IC50 (rabbit atrial muscle; Oryctolagus cuniculus, 0.25 h): 17.5 µM
ED50 [2]: 0.03 mg/kg

O=c1[nH]cc(F)cc1CN1CCC(/C=C/c2ccccc2F)CC1 [Example 335, 1-[(5-Fluoro-2-oxo-1,2-dihydro-3-pyridinyl)methyl]-4-[(E)-2-(2-fluorophenyl)-1-ethenyl]piperidine]
IC50 (rabbit atrial muscle; Oryctolagus cuniculus, 0.25 h): 7.8 µM
ED50 [2]: 0.034 mg/kg

Cc1ccccc1/C=C/C1CCN(Cc2cc(Cl)c[nH]c2=O)CC1 [Example 337, 1-[(5-Chloro-2-oxo-1,2-dihydro-3-pyridinyl)methyl]-4-[(E)-2-(2-methylphenyl)-1-ethenyl]piperidine]
ED50 [2]: 0.3 mg/kg

O=C(O)C(=O)O.O=c1[nH]cccc1CN1CCC(/C=C/c2ccccc2OCC2CCCCC2)CC1 [Example 343, 1-[(2-Oxo-1,2-dihydro-3-pyridinyl)methyl]-4-[(E)-2-[(2-cyclohexylmethyloxy)phenyl]-1-ethenyl]piperidine oxalate]
IC50 (rabbit atrial muscle): 30 µM
Ectopic Firing (ID50 mg/kg) [2]: 0.13 mg/kg

O=C(O)C(=O)O.O=c1[nH]cccc1CN1CCC(/C=C\c2ccccc2OCC2CCCCC2)CC1 [Example 344, 1-[(2-Oxo-1,2-dihydro-3-pyridinyl)methyl]-4-[(Z)-2-[(2-cyclohexylmethyloxy)phenyl]-1-ethenyl]piperidine oxalate]
IC50 (rabbit atrial muscle): 30 µM
Ectopic Firing (ID50 mg/kg) [2]: 0.19 mg/kg

O=C(O)C(=O)O.O=c1[nH]cc(F)cc1CN1CCC(/C=C/c2ccccc2OCC2CCCCC2)CC1 [Example 345, 1-[(5-Fluoro-2-oxo-1,2-dihydro-3-pyridinyl)methyl]-4-[(E)-2-[(2-cyclohexylmethyloxy)phenyl]-1-ethenyl]piperidine oxalate]
Ectopic Firing (ID50 mg/kg) [2]: 0.4 mg/kg

O=C(O)C(=O)O.O=c1[nH]cccc1CN1CCC(C#Cc2ccccc2OCC2CCCCC2)CC1 [Example 349, 1-[(2-Oxo-1,2-dihydro-3-pyridinyl)methyl]-4-[2-[(2-cyclohexylmethyloxy)phenyl]-1-ethynyl]piperidine oxalate]
Ectopic Firing (ID50 mg/kg) [2]: 0.17 mg/kg

N#Cc1c[nH]c(=O)c(CN2CCC(/C=C/c3ccccc3F)CC2)c1 [Example 351, 1-[(5-Cyano-2-oxo-1,2-dihydro-3-pyridinyl)methyl]-4-[(E)-2-(2-fluorophenyl)-1-ethenyl]piperidine]
ED50 [2]: 0.17 mg/kg
